Test system: 624824-186-R-J3-PDC multicell spheroids, viability
Assay: Anticancer human tumor 624824-186-R-J3-PDC patient-derived colon adenocarcinoma cell line growth inhibition [PI3K]
Settings: for IC50: curve of first compound; for viability, T/C: stronger effect = lower value; active means viability on the fitted dose curve at most 10% of control; inactive means the rest
Text: Combinatorial screen of targeted agents with the PI3K inhibitors inavolisib, alpelisib, duvelisib, and copanlisib in multi-cell type tumor spheroids
A high-throughput screen of multi-cell type tumor spheroids was designed to identify active combinations of targeted small molecules and PI3K pathway inhibitors. Complex spheroids include a stromal component modeled by human endothelial cells (HUVEC) and fibroblasts modeled by human mesenchymal stem cells (MSCs). The concentration ranges selected for each drug and investigational agent were based upon clinically achievable concentrations if the clinical Cmax of the agent was known.
Compounds. The drugs and investigational agents: inavolisib (NSC800729), alpelisib (NSC765974), duvelisib (NSC772469), copanlisib (NSC816437), ipatasertib (NSC767898), afuresertib (NSC778305), talazoparib (NSC767125), sapanisertib (NSC764658), selumetinib (NSC741078), tovorafenib (DAY101, NSC766906), vemurafenib (NSC761431), ravoxertinib (NSC781343), sotorasib (NSC818433), MRTX1133 (NSC 836407), abemaciclib (NSC 768073), palbociclib (NSC758247), venetoclax (NSC 766270), SY5609 (NSC837396), enzalutamide (NSC755605), and darolutamide (NSC825331), were obtained from the National Cancer Institute (NCI) Developmental Therapeutics Program Chemical Repository. The FDA-approved anticancer drug set is available from the NCI Developmental Therapeutics Program. […] The stock solutions were prepared in dimethyl sulfoxide (DMSO, Sigma-Aldrich, St. Louis, MO, cat. D2650) at 800-fold the tested concentration and stored at -70 degrees C prior to their use. All drugs and investigational agents were tested over a range starting from a high concentration at or near the clinical Cmax and decreasing in half-log increments. If the clinical Cmax for an agent had not been determined, the highest concentration tested was 10 microM.
Cell Culture. All cells were maintained in an incubator at 37 degrees C and 5% CO2 with 95% humidity. The PDC lines were cultured according to standard operating procedures established by the NCI PDMR (https://pdmr.cancer.gov/sops/default.htm). All PDCs were thawed and cultured in Matrigel-coated flasks prepared with a working solution of 1X Ham's F-12 nutrient mix, without supplementation (Invitrogen, Waltham, MA, cat. 11765054), 100 U/mL penicillin-streptomycin (Invitrogen, cat. 15140122), and 2.5% Matrigel (Corning Inc., Corning, NY, cat. 354248) for the first three passages. The 354836-022-R-J1-PDC, 475296-252-R-J1-PDC, and 997726-040-R-J2-PDC lines were cultured in 6A media, which includes advanced DMEM/F-12 (Thermo Fisher Scientific, cat. 12634028), 10 mM HEPES (Thermo Fisher Scientific, cat. 15630080), 1X GlutaMAX supplement (Thermo Fisher Scientific, cat. 35050061), 0.1 mg/mL primocin (InvivoGen, San Diego, CA, cat. ant-pm-2), 10% defined fetal bovine serum, heat inactivated (HyClone Laboratories Inc., Logan, UT, cat. SH30070.03HI), 50% L-WRN conditioned media (ATCC, cat. CRL-3276), 1.25 mM N-Acetyl-L-cysteine (Sigma-Aldrich, cat. A9165), 10 mM nicotinamide (Sigma-Aldrich, cat. N0636), 1X B-27 supplement (Thermo Fisher Scientific, cat. 17504044), 1X N-2 supplement (Thermo Fisher Scientific, cat. 17502048), and 10 microM Y-27632 dihydrochloride (Tocris Bioscience, Bristol, United Kingdom, cat. 1254). The 624824-186-R-J2-PDC line was cultured in 6C/Colon 1B media, which includes all 6A media components plus 50 ng/mL human EGF recombinant protein (Thermo Fisher Scientific, cat. PHG0311). […]

[1] = second compound 0.00316 µM, first compound 0.0316 µM
[2] = second compound 0.00316 µM, first compound 0.1 µM
[3] = second compound 0.00316 µM, first compound 0.316 µM
[4] = second compound 0.00316 µM, first compound 1 µM
[5] = second compound 0.01 µM, first compound 0.0316 µM
[6] = second compound 0.01 µM, first compound 0.1 µM
[7] = second compound 0.01 µM, first compound 0.316 µM
[8] = second compound 0.01 µM, first compound 1 µM
[9] = second compound 0.0316 µM, first compound 0.0316 µM
[10] = second compound 0.0316 µM, first compound 0.1 µM
[11] = second compound 0.0316 µM, first compound 0.316 µM
[12] = second compound 0.0316 µM, first compound 1 µM
[13] = second compound 0.1 µM, first compound 0.0316 µM
[14] = second compound 0.1 µM, first compound 0.1 µM
[15] = second compound 0.1 µM, first compound 0.316 µM
[16] = second compound 0.1 µM, first compound 1 µM
[17] = second compound 0.316 µM, first compound 0.0316 µM
[18] = second compound 0.316 µM, first compound 0.1 µM
[19] = second compound 0.316 µM, first compound 0.316 µM
[20] = second compound 0.316 µM, first compound 1 µM
[21] = second compound 1 µM, first compound 0.0316 µM
[22] = second compound 1 µM, first compound 0.1 µM
[23] = second compound 1 µM, first compound 0.316 µM
[24] = second compound 1 µM, first compound 1 µM
[25] = second compound 0.0316 µM, first compound 3.16 µM
[26] = second compound 0.0316 µM, first compound 10 µM
[27] = second compound 0.1 µM, first compound 3.16 µM
[28] = second compound 0.1 µM, first compound 10 µM
[29] = second compound 0.316 µM, first compound 3.16 µM
[30] = second compound 0.316 µM, first compound 10 µM
[31] = second compound 1 µM, first compound 3.16 µM
[32] = second compound 1 µM, first compound 10 µM
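Further: spheroids exposed to agents for seven days before luminescence read.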
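Wherever viability, T/C is given: luminescent signal used as a stand-in for spheroid viability; percent viability relative to DMSO vehicle control wells taken as 100%.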

CCN1CCN(Cc2ccc(Nc3ncc(F)c(-c4cc(F)c5nc(C)n(C(C)C)c5c4)n3)nc2)CC1 + CC(Nc1ccc2c(c1)OCCn1cc(N3C(=O)OCC3C(F)F)nc1-2)C(N)=O
inactive: viability, T/C (second compound 0.00316 µM, first compound 0.00316 µM) 99.2% | viability, T/C (second compound 0.00316 µM, first compound 0.01 µM) 96.2% | viability, T/C [1] 106% | viability, T/C [2] 101% | viability, T/C [3] 93.2% | viability, T/C [4] 97.1% | viability, T/C (second compound 0.01 µM, first compound 0.00316 µM) 101% | viability, T/C (second compound 0.01 µM, first compound 0.01 µM) 89% | viability, T/C [5] 114% | viability, T/C [6] 102% | viability, T/C [7] 104% | viability, T/C [8] 90% | viability, T/C (second compound 0.0316 µM, first compound 0.00316 µM) 101% | viability, T/C (second compound 0.0316 µM, first compound 0.01 µM) 97.8% | viability, T/C [9] 102% | viability, T/C [10] 105% | viability, T/C [11] 89.6% | viability, T/C [12] 76.3% | viability, T/C (second compound 0.1 µM, first compound 0.00316 µM) 94.6% | viability, T/C (second compound 0.1 µM, first compound 0.01 µM) 96% | viability, T/C [13] 103% | viability, T/C [14] 105% | viability, T/C [15] 75.2% | viability, T/C [16] 58.3% | viability, T/C (second compound 0.316 µM, first compound 0.00316 µM) 94.5% | viability, T/C (second compound 0.316 µM, first compound 0.01 µM) 92.9% | viability, T/C [17] 105% | viability, T/C [18] 77.2% | viability, T/C [19] 54.6% | viability, T/C [20] 49% | viability, T/C (second compound 1 µM, first compound 0.00316 µM) 95.6% | viability, T/C (second compound 1 µM, first compound 0.01 µM) 87.6% | viability, T/C [21] 81.1% | viability, T/C [22] 56.5% | viability, T/C [23] 45.4% | viability, T/C [24] 52.5%
0.287 µM: IC50 (second compound 1 µM)
> 1 µM: IC50 (second compound 0.00316 µM) | IC50 (second compound 0.01 µM) | IC50 (second compound 0.0316 µM) | IC50 (second compound 0.1 µM) | IC50 (second compound 0.316 µM)

CC1(C)CCC(CN2CCN(c3ccc(C(=O)NS(=O)(=O)c4ccc(NCC5CCOCC5)c([N+](=O)[O-])c4)c(Oc4cnc5[nH]ccc5c4)c3)CC2)=C(c2ccc(Cl)cc2)C1 + COc1c(OCCCN2CCOCC2)ccc2c3n(c(=NC(=O)c4cnc(N)nc4)nc12)CCN3
inactive: viability, T/C [1] 114% | viability, T/C [2] 99.2% | viability, T/C [3] 111% | viability, T/C [4] 102% | viability, T/C (second compound 0.00316 µM, first compound 3.16 µM) 121% | viability, T/C (second compound 0.00316 µM, first compound 10 µM) 105% | viability, T/C [5] 93.7% | viability, T/C [6] 99.5% | viability, T/C [7] 105% | viability, T/C [8] 105% | viability, T/C (second compound 0.01 µM, first compound 3.16 µM) 105% | viability, T/C (second compound 0.01 µM, first compound 10 µM) 107% | viability, T/C [9] 95% | viability, T/C [10] 96.8% | viability, T/C [11] 89.6% | viability, T/C [12] 87.6% | viability, T/C [25] 99.1% | viability, T/C [26] 85.2% | viability, T/C [13] 73.1% | viability, T/C [14] 83.8% | viability, T/C [15] 74.4% | viability, T/C [16] 75.5% | viability, T/C [27] 65% | viability, T/C [28] 80% | viability, T/C [17] 50.7% | viability, T/C [18] 46.9% | viability, T/C [19] 50.7% | viability, T/C [20] 47.2% | viability, T/C [29] 43.1% | viability, T/C [30] 57.9% | viability, T/C [21] 29.5% | viability, T/C [22] 33.7% | viability, T/C [23] 31.5% | viability, T/C [24] 33.7% | viability, T/C [31] 26.9% | viability, T/C [32] 30.8%
< 0.0316 µM: IC50 (second compound 0.316 µM) | IC50 (second compound 1 µM)
> 10 µM: IC50 (second compound 0.00316 µM) | IC50 (second compound 0.01 µM) | IC50 (second compound 0.0316 µM) | IC50 (second compound 0.1 µM)

CC1(C)CCC(CN2CCN(c3ccc(C(=O)NS(=O)(=O)c4ccc(NCC5CCOCC5)c([N+](=O)[O-])c4)c(Oc4cnc5[nH]ccc5c4)c3)CC2)=C(c2ccc(Cl)cc2)C1 + Cc1nc(NC(=O)N2CCCC2C(N)=O)sc1-c1ccnc(C(C)(C)C(F)(F)F)c1
9.43 µM: IC50 (second compound 0.1 µM)
inactive: viability, T/C [9] 106% | viability, T/C [10] 99.3% | viability, T/C [11] 106% | viability, T/C [12] 101% | viability, T/C [25] 119% | viability, T/C [26] 48.7% | viability, T/C [13] 103% | viability, T/C [14] 99.9% | viability, T/C [15] 104% | viability, T/C [16] 107% | viability, T/C [27] 118% | viability, T/C [28] 46.9% | viability, T/C [17] 119% | viability, T/C [18] 104% | viability, T/C [19] 107% | viability, T/C [20] 103% | viability, T/C [29] 116% | viability, T/C [30] 54.6% | viability, T/C [21] 96.2% | viability, T/C [22] 93.8% | viability, T/C [23] 106% | viability, T/C [24] 96.9% | viability, T/C [31] 104% | viability, T/C [32] 53.2% | viability, T/C (second compound 3.16 µM, first compound 0.0316 µM) 82.5% | viability, T/C (second compound 3.16 µM, first compound 0.1 µM) 91.4% | viability, T/C (second compound 3.16 µM, first compound 0.316 µM) 90.8% | viability, T/C (second compound 3.16 µM, first compound 1 µM) 81.8% | viability, T/C (second compound 3.16 µM, first compound 3.16 µM) 91.3% | viability, T/C (second compound 3.16 µM, first compound 10 µM) 44.3% | viability, T/C (second compound 10 µM, first compound 0.0316 µM) 69.9% | viability, T/C (second compound 10 µM, first compound 0.1 µM) 73.8% | viability, T/C (second compound 10 µM, first compound 0.316 µM) 70.1% | viability, T/C (second compound 10 µM, first compound 1 µM) 69.7% | viability, T/C (second compound 10 µM, first compound 3.16 µM) 63.7% | viability, T/C (second compound 10 µM, first compound 10 µM) 33.3%
8.59 µM: IC50 (second compound 3.16 µM)
9.73 µM: IC50 (second compound 0.0316 µM)
5.3 µM: IC50 (second compound 10 µM)
> 10 µM: IC50 (second compound 0.316 µM) | IC50 (second compound 1 µM)

Reference: PubChem BioAssay AID1963977 (Molecular Pharmacology Branch, DTP, NCI, 2024)
